According to BindingDB's records for doi:10.1016/j.bmcl.2006.10.059 (Merck Research Laboratories, 2007):

Assay: Inhibition of MCP1-stimulated chemotaxis in monocytes transfected with human CCR2

Point of comparison: `CC(=O)Nc1nc([C@@H](CCN2CCC3(C=Cc4ccccc43)CC2)C(=O)NCc2cc(C(F)(F)F)cc(C(F)(F)F)c2)cs1` [(2R)-N-{[3,5-bis(trifluoromethyl)phenyl]methyl}-2-(2-acetamido-1,3-thiazol-4-yl)-4-{spiro[indene-1,4'-piperidine]-1'-yl}butanamide], IC50 27 nM. Against it:
- CC(=O)Nc1nc([C@H](CCN2CCC3(C=Cc4ccccc43)CC2)C(=O)NCc2cc(C(F)(F)F)cc(C(F)(F)F)c2)cs1 [(2S)-N-{[3,5-bis(trifluoromethyl)phenyl]methyl}-2-(2-acetamido-1,3-thiazol-4-yl)-4-{spiro[indene-1,4'-piperidine]-1'-yl}butanamide] — 5.1-fold lower, 5.3 nM
- CNC(=O)Nc1nc([C@@H](CCN2CCC(c3ccccc3)CC2)C(=O)NCc2cc(C(F)(F)F)cc(C(F)(F)F)c2)cs1 [(R)-1-(4-(1-(3,5-bis(trifluoromethyl)benzylamino)-1-oxo-4-(4-phenylpiperidin-1-yl)butan-2-yl)thiazol-2-yl)-3-methylurea] — 3.2-fold higher, 87 nM
- CNC(=O)Nc1nc([C@H](CCN2CCC(c3ccccc3)CC2)C(=O)NCc2cc(C(F)(F)F)cc(C(F)(F)F)c2)cs1 [(S)-1-(4-(1-(3,5-bis(trifluoromethyl)benzylamino)-1-oxo-4-(4-phenylpiperidin-1-yl)butan-2-yl)thiazol-2-yl)-3-methylurea] — 15-fold lower, 1.8 nM
- CC(=O)Nc1nc([C@H](CCN2CCC(c3ccccc3)CC2)C(=O)NCc2cc(C(F)(F)F)cc(C(F)(F)F)c2)cs1 [(S)-N-(3,5-bis(trifluoromethyl)benzyl)-2-(2-acetamidothiazol-4-yl)-4-(4-phenylpiperidin-1-yl)butanamide] — 39-fold lower, 0.7 nM
- CC(=O)Nc1nc(C(CCN2CCC3(C=Cc4ccccc43)[C@@H](C)C2)C(=O)NCc2cc(C(F)(F)F)cc(C(F)(F)F)c2)cs1 (stereo partly drawn) [N-{[3,5-bis(trifluoromethyl)phenyl]methyl}-2-(2-acetamido-1,3-thiazol-4-yl)-4-[(5'R)-5'-methylspiro[indene-1,4'-piperidine]-1'-yl]butanamide] — 45-fold lower, 0.6 nM
- CC(=O)Nc1nc(C(CCN2CCC3(C=Cc4ccccc43)CC2)C(=O)NCc2cc(C(F)(F)F)cc(C(F)(F)F)c2)cs1 (configuration not stated) [N-{[3,5-bis(trifluoromethyl)phenyl]methyl}-2-(2-acetamido-1,3-thiazol-4-yl)-4-{spiro[indene-1,4'-piperidine]-1'-yl}butanamide] — 39-fold lower, 0.7 nM
